Test system: Monocotyledonous and dicotyledonous test plants
Assay: Example B1: herbicidal action prior to emergence (pre-emergence), 500 g/ha
Type: in vivo
Conditions: 13 days after application, 0 = no damage, 100 = plants completely dead; for ALOMY herbicidal effect (visual assessment, percentage scale): Alopecurus myosuroides (slender foxtail); for AMARE herbicidal effect (visual assessment, percentage scale): Amaranthus retroflexus (redroot pigweed); for ECHCG herbicidal effect (visual assessment, percentage scale): Echinochloa crus-galli (barnyard grass); for STEME herbicidal effect (visual assessment, percentage scale): Stellaria media (chickweed)
Method: Monocotyledonous and dicotyledonous test plants were sown in seed trays in standard compost. The trays were watered twice daily or as required. The chemicals were applied by track sprayer at the soil surface. The application was carried out with an aqueous suspension of the test substances, prepared as a formulation of 50% acetone in water with 0.5% Tween 20™ (CAS RN 9005-64-5), to achieve a field equivalent of 1000 l/ha. The application rate of the test substances was 500 g/ha. A visual assessment of the herbicidal effect was made at 13 days after application. The following percentage scale was used for assessment: 0, 5, 10, 20, 30, 40, 50, 60, 70, 80, 90, 95, 100 (where 0 is no damage to plants and 100 is plants are completely dead).

SMILES: Cn1nc(C(F)(F)F)c(C[S+]([O-])c2ncc(Cl)s2)c1F (racemic) [Compound 1.008]
- ALOMY herbicidal effect (visual assessment, percentage scale): 95%
- AMARE herbicidal effect (visual assessment, percentage scale): 100%
- ECHCG herbicidal effect (visual assessment, percentage scale): 95%
- STEME herbicidal effect (visual assessment, percentage scale): 80%

SMILES: Cn1nc(C(F)(F)F)c(C[S+]([O-])c2ncc(Br)s2)c1F (racemic) [Compound 1.011]
- ALOMY herbicidal effect (visual assessment, percentage scale): 95%
- AMARE herbicidal effect (visual assessment, percentage scale): 95%
- ECHCG herbicidal effect (visual assessment, percentage scale): 95%
- STEME herbicidal effect (visual assessment, percentage scale): 10%

SMILES: Cn1nc(C(F)(F)F)c(C[S+]([O-])c2nccs2)c1OCC(F)(F)F (racemic) [Compound 1.048]
- ALOMY herbicidal effect (visual assessment, percentage scale): 80%
- AMARE herbicidal effect (visual assessment, percentage scale): 95%
- ECHCG herbicidal effect (visual assessment, percentage scale): 95%
- STEME herbicidal effect (visual assessment, percentage scale): 80%

SMILES: Cn1nc(OC(F)F)c(C[S+]([O-])c2ncc(Cl)s2)c1C(F)(F)F (racemic) [Compound 1.054]
- ALOMY herbicidal effect (visual assessment, percentage scale): 95%
- AMARE herbicidal effect (visual assessment, percentage scale): 100%
- ECHCG herbicidal effect (visual assessment, percentage scale): 95%
- STEME herbicidal effect (visual assessment, percentage scale): 30%

SMILES: Cn1nc(C(F)(F)F)c(C(F)S(=O)(=O)c2ncc(Br)s2)c1Cl (racemic) [Compound No. 1.032]
- ALOMY herbicidal effect (visual assessment, percentage scale): 60%
- AMARE herbicidal effect (visual assessment, percentage scale): 80%
- ECHCG herbicidal effect (visual assessment, percentage scale): 80%
- STEME herbicidal effect (visual assessment, percentage scale): 60%

SMILES: Cn1nc(C(F)(F)F)c(C(Cl)S(=O)(=O)c2ncc(Cl)s2)c1OCC(F)(F)F (racemic) [Compound No. 1.034]
- ALOMY herbicidal effect (visual assessment, percentage scale): 70%
- AMARE herbicidal effect (visual assessment, percentage scale): 100%
- ECHCG herbicidal effect (visual assessment, percentage scale): 95%
- STEME herbicidal effect (visual assessment, percentage scale): 40%

SMILES: Cn1nc(C(F)(F)F)c(C(F)(Cl)S(=O)(=O)c2ncc(Cl)s2)c1OCC(F)(F)F (racemic) [Compound No. 1.035]
- ALOMY herbicidal effect (visual assessment, percentage scale): 0%
- AMARE herbicidal effect (visual assessment, percentage scale): 95%
- ECHCG herbicidal effect (visual assessment, percentage scale): 95%
- STEME herbicidal effect (visual assessment, percentage scale): 20%

SMILES: Cn1nc(C(F)(F)F)c(C(Cl)S(=O)(=O)c2ncc(Br)s2)c1OCC(F)(F)F (racemic) [Compound No. 1.039]
- ALOMY herbicidal effect (visual assessment, percentage scale): 60%
- AMARE herbicidal effect (visual assessment, percentage scale): 95%
- ECHCG herbicidal effect (visual assessment, percentage scale): 95%
- STEME herbicidal effect (visual assessment, percentage scale): 0%

SMILES: Cn1nc(C(F)(F)F)c(C(Cl)S(=O)(=O)c2ncc(Cl)s2)c1Cl (racemic) [Compound No. 1.043]
- ALOMY herbicidal effect (visual assessment, percentage scale): 0%
- AMARE herbicidal effect (visual assessment, percentage scale): 80%
- ECHCG herbicidal effect (visual assessment, percentage scale): 95%
- STEME herbicidal effect (visual assessment, percentage scale): 0%

SMILES: Cn1nc(C(F)(F)F)c(C(F)(Cl)S(=O)(=O)c2ncc(Cl)s2)c1Cl (racemic) [Compound No. 1.044]
- ALOMY herbicidal effect (visual assessment, percentage scale): 40%
- AMARE herbicidal effect (visual assessment, percentage scale): 95%
- ECHCG herbicidal effect (visual assessment, percentage scale): 95%
- STEME herbicidal effect (visual assessment, percentage scale): 90%

SMILES: Cn1nc(C(F)(F)F)c(C(F)S(=O)(=O)c2ncc(Cl)s2)c1Cl (racemic) [Compound No. 1.045]
- ALOMY herbicidal effect (visual assessment, percentage scale): 70%
- AMARE herbicidal effect (visual assessment, percentage scale): 100%
- ECHCG herbicidal effect (visual assessment, percentage scale): 100%
- STEME herbicidal effect (visual assessment, percentage scale): 0%

SMILES: Cn1nc(C(F)(F)F)c(CS(=O)(=O)c2nc(Br)cs2)c1OCC(F)(F)F [Compound 1.029]
- ALOMY herbicidal effect (visual assessment, percentage scale): 0%
- AMARE herbicidal effect (visual assessment, percentage scale): 95%
- ECHCG herbicidal effect (visual assessment, percentage scale): 0%
- STEME herbicidal effect (visual assessment, percentage scale): 95%

SMILES: Cn1nc(C(F)(F)F)c(CS(=O)(=O)c2nccs2)c1OCC(F)(F)F [Compound 1.049]
- ALOMY herbicidal effect (visual assessment, percentage scale): 30%
- AMARE herbicidal effect (visual assessment, percentage scale): 95%
- ECHCG herbicidal effect (visual assessment, percentage scale): 95%
- STEME herbicidal effect (visual assessment, percentage scale): 10%

SMILES: Cn1nc(C(F)(F)F)c(CSc2ncc(Cl)s2)c1F [Compound No. 1.007]
- ALOMY herbicidal effect (visual assessment, percentage scale): 95%
- AMARE herbicidal effect (visual assessment, percentage scale): 80%
- ECHCG herbicidal effect (visual assessment, percentage scale): 95%
- STEME herbicidal effect (visual assessment, percentage scale): 40%

SMILES: Cn1nc(C(F)(F)F)c(CS(=O)(=O)c2ncc(Cl)s2)c1F [Compound No. 1.009]
- ALOMY herbicidal effect (visual assessment, percentage scale): 0%
- AMARE herbicidal effect (visual assessment, percentage scale): 95%
- ECHCG herbicidal effect (visual assessment, percentage scale): 95%
- STEME herbicidal effect (visual assessment, percentage scale): 0%

SMILES: Cn1nc(C(F)(F)F)c(CSc2ncc(Br)s2)c1F [Compound No. 1.010]
- ALOMY herbicidal effect (visual assessment, percentage scale): 60%
- AMARE herbicidal effect (visual assessment, percentage scale): 70%
- ECHCG herbicidal effect (visual assessment, percentage scale): 80%
- STEME herbicidal effect (visual assessment, percentage scale): 0%

SMILES: Cn1nc(C(F)(F)F)c(CS(=O)(=O)c2ncc(Br)s2)c1F [Compound No. 1.012]
- ALOMY herbicidal effect (visual assessment, percentage scale): 70%
- AMARE herbicidal effect (visual assessment, percentage scale): 90%
- ECHCG herbicidal effect (visual assessment, percentage scale): 95%
- STEME herbicidal effect (visual assessment, percentage scale): 0%

SMILES: Cn1nc(C(F)(F)F)c(CS(=O)(=O)c2ncc(Cl)s2)c1OCC(F)(F)F [Compound No. 1.015]
- ALOMY herbicidal effect (visual assessment, percentage scale): 90%
- AMARE herbicidal effect (visual assessment, percentage scale): 95%
- ECHCG herbicidal effect (visual assessment, percentage scale): 95%
- STEME herbicidal effect (visual assessment, percentage scale): 80%

SMILES: Cn1nc(C(F)(F)F)c(CS(=O)(=O)c2ncc(Cl)s2)c1Cl [Compound No. 1.018]
- ALOMY herbicidal effect (visual assessment, percentage scale): 60%
- AMARE herbicidal effect (visual assessment, percentage scale): 100%
- ECHCG herbicidal effect (visual assessment, percentage scale): 95%
- STEME herbicidal effect (visual assessment, percentage scale): 0%

SMILES: Cn1nc(C(F)(F)F)c(C(F)(F)S(=O)(=O)c2ncc(Br)s2)c1OCC(F)(F)F [Compound No. 1.042]
- ALOMY herbicidal effect (visual assessment, percentage scale): 60%
- AMARE herbicidal effect (visual assessment, percentage scale): 100%
- ECHCG herbicidal effect (visual assessment, percentage scale): 95%
- STEME herbicidal effect (visual assessment, percentage scale): 90%
